Our source for the AC50 values is ChEMBL document CHEMBL5291721, “A preclinical secondary pharmacology resource illuminates target-adverse drug reaction associations of marketed drugs” (Nat Commun, 2023).

One assay deals with T1, B2 bradykinin receptor (Homo sapiens, UniProt P30411).
T1 sequence (P30411 whole entry): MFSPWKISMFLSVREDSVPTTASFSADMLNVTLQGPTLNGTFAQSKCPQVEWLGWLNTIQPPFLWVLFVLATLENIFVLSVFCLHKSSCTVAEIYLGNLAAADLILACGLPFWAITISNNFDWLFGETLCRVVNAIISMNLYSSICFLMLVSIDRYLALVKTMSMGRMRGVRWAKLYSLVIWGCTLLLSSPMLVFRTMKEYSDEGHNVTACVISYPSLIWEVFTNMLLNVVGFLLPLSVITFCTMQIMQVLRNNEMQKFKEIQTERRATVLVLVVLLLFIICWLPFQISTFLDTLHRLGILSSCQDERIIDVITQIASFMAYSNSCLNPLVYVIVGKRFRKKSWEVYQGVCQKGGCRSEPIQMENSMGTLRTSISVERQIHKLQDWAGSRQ

In another assay the target is Adenosine receptor A2a (Homo sapiens, UniProt P29274).
For assay [1], the target named is Beta-2 adrenergic receptor (Homo sapiens, UniProt P07550).
Assay [2] addresses T2, Muscarinic acetylcholine receptor M2 (Homo sapiens, UniProt P08172).
T2 sequence (P08172 whole entry): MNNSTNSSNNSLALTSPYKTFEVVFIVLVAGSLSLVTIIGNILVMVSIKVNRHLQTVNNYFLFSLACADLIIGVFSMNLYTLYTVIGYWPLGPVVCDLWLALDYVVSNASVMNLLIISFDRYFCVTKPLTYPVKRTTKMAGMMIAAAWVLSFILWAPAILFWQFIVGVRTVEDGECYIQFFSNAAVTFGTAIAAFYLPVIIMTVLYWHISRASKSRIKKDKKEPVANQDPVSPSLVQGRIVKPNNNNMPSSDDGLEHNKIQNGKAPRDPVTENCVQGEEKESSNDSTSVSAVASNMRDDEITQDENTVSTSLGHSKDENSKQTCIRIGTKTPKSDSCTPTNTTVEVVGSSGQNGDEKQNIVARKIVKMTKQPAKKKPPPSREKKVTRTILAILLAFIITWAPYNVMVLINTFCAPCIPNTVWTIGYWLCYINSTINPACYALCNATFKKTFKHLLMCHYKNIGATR
Type of assay: functional, cell-based.

In a further assay the target is Vasopressin V1a receptor (Homo sapiens, UniProt P37288).
Assay [3] concerns the target T3, Gastrin/cholecystokinin type B receptor (Homo sapiens, UniProt P32239).
T3 sequence (P32239 whole entry): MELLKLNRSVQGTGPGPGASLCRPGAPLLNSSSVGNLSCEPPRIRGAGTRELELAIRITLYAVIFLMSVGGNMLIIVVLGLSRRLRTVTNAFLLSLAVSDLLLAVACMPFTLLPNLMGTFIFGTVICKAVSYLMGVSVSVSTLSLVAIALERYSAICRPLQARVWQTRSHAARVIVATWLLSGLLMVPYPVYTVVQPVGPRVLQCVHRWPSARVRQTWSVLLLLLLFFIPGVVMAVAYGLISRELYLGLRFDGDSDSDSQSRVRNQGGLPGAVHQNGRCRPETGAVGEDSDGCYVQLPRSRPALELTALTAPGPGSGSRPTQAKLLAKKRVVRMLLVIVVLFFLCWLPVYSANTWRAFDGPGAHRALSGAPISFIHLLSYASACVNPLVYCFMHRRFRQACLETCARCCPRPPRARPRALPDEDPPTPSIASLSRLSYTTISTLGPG

The target of assay [4] is T4, Alpha-1A adrenergic receptor (Homo sapiens, UniProt P35348).
T4 sequence (P35348 whole entry): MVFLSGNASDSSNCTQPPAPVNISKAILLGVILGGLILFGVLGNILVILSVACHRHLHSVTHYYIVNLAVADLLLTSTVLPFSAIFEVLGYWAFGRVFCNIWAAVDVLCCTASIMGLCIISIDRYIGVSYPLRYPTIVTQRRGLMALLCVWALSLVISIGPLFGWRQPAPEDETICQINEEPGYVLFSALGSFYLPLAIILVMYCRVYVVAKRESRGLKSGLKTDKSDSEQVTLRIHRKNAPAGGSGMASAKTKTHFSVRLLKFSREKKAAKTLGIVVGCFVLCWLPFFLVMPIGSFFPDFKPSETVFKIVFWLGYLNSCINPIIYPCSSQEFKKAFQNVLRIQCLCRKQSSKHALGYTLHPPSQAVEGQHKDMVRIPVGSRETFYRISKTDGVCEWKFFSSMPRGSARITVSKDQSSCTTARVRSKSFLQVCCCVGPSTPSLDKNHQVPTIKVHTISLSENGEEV
Format: functional, cell-based.

A further assay has as its target T5, Thromboxane A2 receptor (Homo sapiens, UniProt P21731).
T5 sequence (P21731 whole entry): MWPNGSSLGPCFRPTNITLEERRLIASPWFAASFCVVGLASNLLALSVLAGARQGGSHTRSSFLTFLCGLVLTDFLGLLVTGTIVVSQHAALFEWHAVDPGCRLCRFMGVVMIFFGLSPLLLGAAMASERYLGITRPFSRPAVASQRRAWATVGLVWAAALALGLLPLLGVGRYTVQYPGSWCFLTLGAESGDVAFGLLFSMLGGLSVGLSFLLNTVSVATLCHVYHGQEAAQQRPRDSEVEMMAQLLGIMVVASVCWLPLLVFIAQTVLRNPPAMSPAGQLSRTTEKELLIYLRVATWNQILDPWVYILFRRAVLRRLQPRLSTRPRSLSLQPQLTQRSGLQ

For assay [5], the target named is 5-hydroxytryptamine receptor 2B (Homo sapiens, UniProt P41595). Type of assay: functional, cell-based.
For assay [6], the target named is Kappa-type opioid receptor (Homo sapiens, UniProt P41145).
The target in a further assay is T6, Adenosine receptor A3 (Homo sapiens, UniProt P0DMS8).
T6 sequence (P0DMS8 whole entry): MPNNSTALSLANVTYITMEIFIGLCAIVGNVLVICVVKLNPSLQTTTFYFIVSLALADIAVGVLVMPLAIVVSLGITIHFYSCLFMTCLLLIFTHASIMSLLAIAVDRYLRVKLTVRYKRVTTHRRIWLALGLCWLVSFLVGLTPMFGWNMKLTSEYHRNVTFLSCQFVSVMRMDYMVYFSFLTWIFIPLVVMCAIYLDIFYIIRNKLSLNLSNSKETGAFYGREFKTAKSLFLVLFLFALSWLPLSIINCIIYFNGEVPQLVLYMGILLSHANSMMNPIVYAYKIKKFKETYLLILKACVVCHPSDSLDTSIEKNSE

The target of a further assay is D(1A) dopamine receptor (Homo sapiens, UniProt P21728). Type of assay: functional, cell-based.
Also: assay procedure not described here.

Kappa-type opioid receptor, sequence (P41145 whole entry): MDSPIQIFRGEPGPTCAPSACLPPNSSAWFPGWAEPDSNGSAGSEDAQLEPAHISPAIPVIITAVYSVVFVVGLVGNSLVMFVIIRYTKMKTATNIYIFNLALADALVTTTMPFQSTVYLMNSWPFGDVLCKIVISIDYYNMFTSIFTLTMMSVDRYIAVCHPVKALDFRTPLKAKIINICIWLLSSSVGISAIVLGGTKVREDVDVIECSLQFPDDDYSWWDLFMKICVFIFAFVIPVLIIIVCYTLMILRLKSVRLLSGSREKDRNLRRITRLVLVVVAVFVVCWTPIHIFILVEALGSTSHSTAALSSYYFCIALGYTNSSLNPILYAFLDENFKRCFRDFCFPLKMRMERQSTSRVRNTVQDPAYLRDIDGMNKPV
Beta-2 adrenergic receptor, sequence (P07550 whole entry): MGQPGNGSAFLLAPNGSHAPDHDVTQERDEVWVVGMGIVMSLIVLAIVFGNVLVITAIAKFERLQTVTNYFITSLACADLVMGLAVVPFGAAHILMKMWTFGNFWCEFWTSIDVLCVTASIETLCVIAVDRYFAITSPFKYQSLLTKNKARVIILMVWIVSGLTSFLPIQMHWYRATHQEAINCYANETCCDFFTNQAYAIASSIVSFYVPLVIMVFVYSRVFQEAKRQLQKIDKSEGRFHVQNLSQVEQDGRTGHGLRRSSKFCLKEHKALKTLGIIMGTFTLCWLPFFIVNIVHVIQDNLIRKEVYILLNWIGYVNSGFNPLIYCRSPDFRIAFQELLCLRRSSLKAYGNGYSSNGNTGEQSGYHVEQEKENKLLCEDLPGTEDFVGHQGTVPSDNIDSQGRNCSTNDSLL
Vasopressin V1a receptor, sequence (P37288 whole entry): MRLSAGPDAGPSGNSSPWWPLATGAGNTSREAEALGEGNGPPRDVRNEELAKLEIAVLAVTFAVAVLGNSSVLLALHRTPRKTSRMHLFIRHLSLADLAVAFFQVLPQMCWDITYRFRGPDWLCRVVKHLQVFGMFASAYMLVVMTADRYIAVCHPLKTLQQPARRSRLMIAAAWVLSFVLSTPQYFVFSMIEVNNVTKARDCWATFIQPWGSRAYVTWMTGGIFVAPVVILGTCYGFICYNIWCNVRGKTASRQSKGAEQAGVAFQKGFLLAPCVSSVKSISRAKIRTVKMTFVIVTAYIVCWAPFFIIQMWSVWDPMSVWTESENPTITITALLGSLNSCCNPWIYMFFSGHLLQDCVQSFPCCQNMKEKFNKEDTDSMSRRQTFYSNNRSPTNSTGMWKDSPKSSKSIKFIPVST
D(1A) dopamine receptor, sequence (P21728 whole entry): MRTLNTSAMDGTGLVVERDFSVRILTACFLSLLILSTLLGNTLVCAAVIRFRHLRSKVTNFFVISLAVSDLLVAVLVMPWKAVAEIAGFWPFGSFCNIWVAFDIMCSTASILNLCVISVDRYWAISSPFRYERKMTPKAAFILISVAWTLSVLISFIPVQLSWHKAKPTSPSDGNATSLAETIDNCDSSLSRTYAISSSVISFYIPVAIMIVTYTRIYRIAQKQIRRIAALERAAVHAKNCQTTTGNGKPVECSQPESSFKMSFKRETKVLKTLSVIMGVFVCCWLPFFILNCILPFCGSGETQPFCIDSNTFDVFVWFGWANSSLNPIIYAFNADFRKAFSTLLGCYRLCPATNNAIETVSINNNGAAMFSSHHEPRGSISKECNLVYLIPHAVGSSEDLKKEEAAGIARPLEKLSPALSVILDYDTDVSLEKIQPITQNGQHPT
5-hydroxytryptamine receptor 2B, sequence (P41595 whole entry): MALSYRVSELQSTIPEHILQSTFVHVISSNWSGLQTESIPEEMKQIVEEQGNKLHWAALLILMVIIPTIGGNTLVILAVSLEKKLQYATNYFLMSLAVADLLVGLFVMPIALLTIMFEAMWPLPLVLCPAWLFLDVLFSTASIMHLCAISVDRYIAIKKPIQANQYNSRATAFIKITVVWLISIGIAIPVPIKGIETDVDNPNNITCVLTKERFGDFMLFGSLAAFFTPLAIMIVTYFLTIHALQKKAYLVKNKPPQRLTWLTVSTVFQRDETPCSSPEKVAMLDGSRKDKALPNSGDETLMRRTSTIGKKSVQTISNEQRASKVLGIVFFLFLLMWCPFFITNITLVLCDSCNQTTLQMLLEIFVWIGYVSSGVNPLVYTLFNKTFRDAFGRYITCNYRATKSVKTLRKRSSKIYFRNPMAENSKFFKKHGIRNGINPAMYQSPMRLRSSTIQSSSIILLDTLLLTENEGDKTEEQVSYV
Adenosine receptor A2a, sequence (P29274 whole entry): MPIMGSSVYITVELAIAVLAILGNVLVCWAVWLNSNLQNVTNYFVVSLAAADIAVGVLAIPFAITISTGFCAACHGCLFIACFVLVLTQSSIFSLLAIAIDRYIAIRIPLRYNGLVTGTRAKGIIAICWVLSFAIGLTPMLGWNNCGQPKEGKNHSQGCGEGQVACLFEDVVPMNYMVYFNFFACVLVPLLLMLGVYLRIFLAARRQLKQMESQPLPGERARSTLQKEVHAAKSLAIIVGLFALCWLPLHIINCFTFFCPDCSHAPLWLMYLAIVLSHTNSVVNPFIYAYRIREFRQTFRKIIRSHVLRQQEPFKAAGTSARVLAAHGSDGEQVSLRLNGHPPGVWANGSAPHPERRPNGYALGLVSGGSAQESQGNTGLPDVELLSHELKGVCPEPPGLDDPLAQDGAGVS

For orientation: AC50 means the concentration at which the activity in the assay is half-maximal. As for `CCOc1nc2cccc(C(=O)O)c2n1Cc1ccc(-c2ccccc2-c2nnn[nH]2)cc1`, the concentration at half-maximal activity (AC50) is over 30 µM at B2 bradykinin receptor; over 30 µM at Adenosine receptor A2a; over 10 µM in [1]; over 30 µM in assay [2]; over 30 µM at Vasopressin V1a receptor; over 10 µM in [3]. Also, the AC50 in assay [4] was over 30 µM; at Thromboxane A2 receptor, over 10 µM; in [5] it was 16 µM; in assay [6], over 10 µM; at Adenosine receptor A3, over 30 µM; at D(1A) dopamine receptor, over 30 µM.
`CC(=O)Nc1ccc(CC(=O)O)cc1` [ACTARIT]: the concentration at half-maximal activity (AC50) (at B2 bradykinin receptor; at Adenosine receptor A2a; in [1]; in assay [2]; on Vasopressin V1a receptor; in assay [3]) was over 30 µM each time. In addition, the AC50 (in assay [4]; on Thromboxane A2 receptor; in assay [5]; in assay [6]; at Adenosine receptor A3; at D(1A) dopamine receptor) was over 30 µM throughout.
In the case of `CC(C(=O)O)c1ccc2oc(-c3ccc(Cl)cc3)nc2c1` (configuration not stated) [BENOXAPROFEN], the AC50 on B2 bradykinin receptor is over 30 µM; at Adenosine receptor A2a, over 30 µM; in [1], over 30 µM; in [2], over 30 µM; in assay [3] it was over 10 µM; in assay [4], over 30 µM. The AC50 (on Thromboxane A2 receptor; in [5]; in [6]; on Adenosine receptor A3; on D(1A) dopamine receptor) was over 30 µM each time.
`CC=CC1=C(C(=O)O)N2C(=O)[C@@H](NC(=O)[C@H](N)c3ccc(O)cc3)[C@H]2SC1` [CEFPROZIL]: the AC50 (on B2 bradykinin receptor; on Adenosine receptor A2a; in assay [1]; in assay [2]; at Vasopressin V1a receptor; in [3]) was over 30 µM in each case. Also, the AC50 (in assay [4]; on Thromboxane A2 receptor; in assay [5]; in assay [6]; at Adenosine receptor A3; on D(1A) dopamine receptor) was over 30 µM each time.
In the case of `CC(C)(O/N=C(\C(=O)N[C@@H]1C(=O)N2C(C(=O)[O-])=C(C[n+]3ccccc3)CS[C@H]12)c1csc(N)n1)C(=O)O` [CEFTAZIDIME], the concentration at half-maximal activity (AC50) was over 30 µM on B2 bradykinin receptor; over 300 µM on Adenosine receptor A2a; over 300 µM in [2]; over 300 µM at Vasopressin V1a receptor; over 30 µM in [3]; over 300 µM in [4]. The concentration at half-maximal activity (AC50) was over 300 µM in [5], over 30 µM in [6], over 300 µM on Adenosine receptor A3 and over 300 µM at D(1A) dopamine receptor.
With `CCCNC(=O)NS(=O)(=O)c1ccc(Cl)cc1` [CHLORPROPAMIDE], the AC50 on B2 bradykinin receptor was over 30 µM; on Adenosine receptor A2a it was over 30 µM; in assay [1] it was over 10 µM; in assay [2], over 10 µM; on Vasopressin V1a receptor it was over 30 µM; in [3], over 30 µM. The concentration at half-maximal activity (AC50) in assay [4] is over 30 µM; on Thromboxane A2 receptor, over 30 µM; in assay [5], over 10 µM; in assay [6], over 10 µM; at Adenosine receptor A3, over 30 µM; on D(1A) dopamine receptor, over 10 µM.
For the compound `COc1ccccc1OC1(C)OC(=O)c2ccccc2O1` (configuration not stated) [GUAIMESAL], the AC50 (on B2 bradykinin receptor; at Adenosine receptor A2a; in assay [1]; on Vasopressin V1a receptor; in assay [3]; on Thromboxane A2 receptor) was over 30 µM in each case. At Adenosine receptor A3, this compound displayed a concentration at half-maximal activity (AC50) of over 30 µM.
Take `COc1cc(C(C)=O)ccc1OCCCN1CCC(c2noc3cc(F)ccc23)CC1` [ILOPERIDONE]: the AC50 was over 30 µM at Adenosine receptor A2a; over 10 µM in [1]; 8.3 µM in assay [2]; over 30 µM on Vasopressin V1a receptor; 9.33 µM in assay [3]; over 30 µM in [4]. For the same compound, the AC50 in assay [5] is 1.8 µM; in assay [6], over 10 µM; on Adenosine receptor A3, over 30 µM; at D(1A) dopamine receptor, over 30 µM.
As to `CC[C@@H](CO)NC(=O)[C@@H]1C=C2c3cccc4c3c(cn4C)C[C@H]2N(C)C1` [METHYSERGIDE], the concentration at half-maximal activity (AC50) on B2 bradykinin receptor was over 30 µM; on Adenosine receptor A2a it was over 30 µM; in [1], over 10 µM; in assay [2], over 30 µM; at Vasopressin V1a receptor, over 30 µM; in assay [3], over 30 µM. Moreover, the AC50 in assay [4] was 0.88 µM; at Thromboxane A2 receptor, 24.5 µM; in assay [6], over 10 µM; at Adenosine receptor A3, over 30 µM.
Regarding `CN1Cc2c(N)cccc2C(c2ccccc2)C1` (configuration not stated) [NOMIFENSINE], the AC50 (at B2 bradykinin receptor; at Adenosine receptor A2a; in [2]; at Vasopressin V1a receptor; in [3]; in assay [4]) was over 30 µM each time. In addition, the AC50 (on Thromboxane A2 receptor; in [6]; at Adenosine receptor A3; at D(1A) dopamine receptor) was over 30 µM each time.
For `CC(CN1c2ccccc2Sc2ccccc21)N(C)C` (configuration not stated) [PROMETHAZINE], the AC50 is over 30 µM at B2 bradykinin receptor; over 30 µM at Adenosine receptor A2a; over 10 µM in assay [1]; 0.322 µM in assay [2]; over 10 µM at Vasopressin V1a receptor; over 30 µM in [3]. The AC50 is over 30 µM in [4]; over 30 µM on Thromboxane A2 receptor; 1.4 µM in assay [5]; over 30 µM on Adenosine receptor A3; over 10 µM on D(1A) dopamine receptor.
